Measured values as given in PMC6560451, “Occurrence and Function of the Na^+-Translocating NADH:Quinone Oxidoreductase in Prevotella spp” (Microorganisms, 2019).

Molecular target: T1, NqrB and NqrC subunits of P. bryantii B14 (Segatella baroniae, UniProt D8DWB9+D8DWC0)
T1 sequence (D8DWC0 1-385): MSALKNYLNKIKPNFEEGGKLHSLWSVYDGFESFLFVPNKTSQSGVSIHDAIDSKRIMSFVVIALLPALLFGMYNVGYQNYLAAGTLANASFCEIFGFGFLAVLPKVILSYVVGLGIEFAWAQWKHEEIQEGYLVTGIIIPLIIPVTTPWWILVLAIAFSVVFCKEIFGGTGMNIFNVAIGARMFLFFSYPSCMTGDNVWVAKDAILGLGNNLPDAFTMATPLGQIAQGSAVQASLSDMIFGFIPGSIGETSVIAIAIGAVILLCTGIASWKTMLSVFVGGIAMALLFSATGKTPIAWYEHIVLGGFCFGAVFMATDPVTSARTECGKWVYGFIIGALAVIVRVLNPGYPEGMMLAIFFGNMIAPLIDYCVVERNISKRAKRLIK
T1 sequence (D8DWB9 1-210): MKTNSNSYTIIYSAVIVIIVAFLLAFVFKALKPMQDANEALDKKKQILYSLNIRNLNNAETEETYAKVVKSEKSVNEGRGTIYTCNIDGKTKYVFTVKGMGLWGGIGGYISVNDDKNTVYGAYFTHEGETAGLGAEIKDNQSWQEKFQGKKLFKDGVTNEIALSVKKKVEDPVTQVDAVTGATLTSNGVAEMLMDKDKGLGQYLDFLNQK
Experiment: in-gel fluorescence after SDS-PAGE (excitation […] nm)
Assay type: biochemical

Cc1cc2nc3c(=O)[nH]c(=O)nc-3n(C[C@H](O)[C@H](O)[C@H](O)COP(=O)(O)O)c2cc1C [flavin mononucleotide]
in-gel fluorescence after SDS-PAGE (excitation 460 nm): verified by in-gel fluorescence detection of covalently bound FMN chromophores
